This note sets out measurements from patent US12371464B2, “Polypeptides and uses thereof” (MEDIMMUNE LIMITED, priority 2020, dated 2025).

Numbered stars: 1 amine (or outer) side, 2 acyl side, 3 side chain; on linkers, the order of the positions; unused ones are H or OH. Bridge positions count the residues as written; N and C are the ends. Square brackets hold non-standard residues; d marks the D form. Side chains are listed from the residue outwards. Peptide text beside a SMILES is read from it. * marks the point of attachment. C18 diacid = O=C(O)CCCCCCCCCCCCCCCCC(=O)*; γGlu = O=C(O)[C@H](CCC(=O)[*:2])N[*:1]; αMeF = C[C@](N)(Cc1ccccc1)C(=O)O; Dab = NCC[C@H](N)C(=O)O; Aib = CC(C)(N)C(=O)O

One series deals with lean rats. As to the kind of experiment: Rat acute food intake study. In kind it is in vivo, Sprague Dawley rats. Conditions: 20 nmol/kg subcutaneously. The protocol: Male Sprague Dawley rats were obtained from Taconic Denmark, ApS at approximately 7 weeks of age. . . . Rats were implanted with a microchip for identification, housed 4/cage with enrichment, free access to food and water, and allowed one week acclimatisation while non-invasive characterization was performed. Rats were on a 12:12 light:dark cycle that switches at 1 pm:1 am. Food intake was monitored via the HM2 system (Lafayette Instrument) that allows for monitoring in a home cage. As each rat enters an access tunnel to feed, an IR beam is broken, and the implanted microchip is read. Resulting changes to food weight is then assigned to the specific animal. Social order has shown no impact to overall feeding patterns and amounts.
Rats were sorted into groups based on Day-1 body weight and 24-hour accumulated food intake (n=7 per group). On Day 0 rats were weighed, then fasted for 6 hours. Thirty (30) minutes prior to the reintroduction of food, rats were dosed subcutaneously (5 ml/kg) with 20 nmol/kg of test compound or 60 nmol/kg peptide 1 (pramlintide) diluted in an appropriate vehicle, after which food was returned, and lights went out. Automated food intake was monitored for the following 3 days, and rats were weighed once per day.
Food intake per rat was batched into 1-hour intervals and integrated into Gubra's GubraView data management system. Discrete food intake data was exported into MS Excel from which cumulative food intake data was generated. Cumulative food intake data was then transposed into GraphPad Prism (v8.0.1) for analysis of dark period feeding

Series [1] in a line: Thioflavin T fibrillation assay. Conditions: for Time taken to detect increase in fluorescence intensity: 1 mg/mL in 25 mM sodium acetate buffer pH 4.0, 37° C., 6 days, orbital shaking, >144 h = no increase. In kind it is physicochemical. The method in brief:
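Peptides at 1 mg/mL in 25 mM sodium acetate pH 4.0 were mixed with ThT (0.25 mM stock) and held 6 days at 37 °C with intermittent orbital shaking at 500–750 rpm. Fluorescence (ex 444/em 480 nm) was read every 30 min, with buffer baseline correction and 5 replicates. Value: mean time to a detectable fluorescence increase.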

With `CC[C@H](C)[C@H](NC(=O)[C@@H]1CCCN1C(=O)CNC(=O)[C@H](Cc1ccccc1)NC(=O)[C@H](CC(N)=O)NC(=O)[C@H](CC(N)=O)NC(=O)[C@H](CO)NC(=O)[C@H](CO)NC(=O)[C@H](Cc1c[nH]cn1)NC(=O)C(C)(C)NC(=O)[C@H](CC(C)C)NC(=O)[C@H](Cc1ccccc1)NC(=O)[C@H](CC(N)=O)NC(=O)[C@H](C)NC(=O)[C@H](CC(C)C)NC(=O)[C@H](CCCNC(=N)N)NC(=O)[C@H](CCC(N)=O)NC(=O)[C@@H](NC(=O)[C@H](C)NC(=O)[C@@H]1CSSC[C@H](NC(=O)[C@@H](N)CCCCNC(=O)CC[C@H](NC(=O)CCCCCCCCCCCCCCCCC(=O)O)C(=O)O)C(=O)N[C@@H](CC(N)=O)C(=O)N[C@@H]([C@@H](C)O)C(=O)N[C@@H](C)C(=O)N[C@@H]([C@@H](C)O)C(=O)N1)[C@@H](C)O)C(=O)N[C@@H](CC(C)C)C(=O)N1CCC[C@H]1C(=O)N1CCC[C@H]1C(=O)N[C@H](C(=O)N[C@@H](CC(N)=O)C(=O)N[C@H](C(=O)NCC(=O)N[C@@H](CO)C(=O)N[C@@H](CC(N)=O)C(=O)N[C@H](C(=O)N[C@@H](Cc1ccc(O)cc1)C(N)=O)[C@@H](C)O)C(C)C)[C@@H](C)O` [Peptide 149] (H-K([γGlu-C18 diacid])CNTATCATQRLANFL[Aib]HSSNNFGPILPPTNVGSNTY-NH2; disulfide 2-7; N-terminus assumed), the “Cummulative food intake (% vehicle treated intake) At 12 h” value with lean rats stood at 31 % vehicle treated intake.
As for `CC[C@H](C)[C@H](NC(=O)[C@@H]1CCCN1C(=O)CNC(=O)[C@H](Cc1ccccc1)NC(=O)[C@H](CC(N)=O)NC(=O)C(C)(C)NC(=O)[C@H](CO)NC(=O)[C@H](CO)NC(=O)[C@H](Cc1c[nH]cn1)NC(=O)[C@@H](NC(=O)[C@H](CC(C)C)NC(=O)[C@H](Cc1ccccc1)NC(=O)[C@H](CCC(=O)O)NC(=O)[C@H](C)NC(=O)[C@H](CC(C)C)NC(=O)[C@H](CCCNC(=N)N)NC(=O)[C@H](CCC(N)=O)NC(=O)[C@@H](NC(=O)[C@H](C)NC(=O)[C@@H]1CSSC[C@H](NC(=O)[C@H](CCCCN)NC(=O)[C@@H](N)CCCCNC(=O)CC[C@H](NC(=O)CCCCCCCCCCCCCCCCC(=O)O)C(=O)O)C(=O)N[C@@H](CC(N)=O)C(=O)N[C@@H]([C@@H](C)O)C(=O)N[C@@H](C)C(=O)N[C@@H]([C@@H](C)O)C(=O)N1)[C@@H](C)O)C(C)C)C(=O)N[C@@H](CC(C)C)C(=O)N1CCC[C@H]1C(=O)N1CCC[C@H]1C(=O)N[C@H](C(=O)N[C@@H](CC(N)=O)C(=O)N[C@H](C(=O)NCC(=O)N[C@@H](CO)C(=O)N[C@@H](CC(N)=O)C(=O)N[C@H](C(=O)N[C@@H](Cc1ccc(O)cc1)C(N)=O)[C@@H](C)O)C(C)C)[C@@H](C)O` [Peptide 38, K(γE-C18diacid)K[CNTATC]ATQRLAEFLVHSS(Aib)NFGPILPPTNVGSNTY-amide] (H-K([γGlu-C18 diacid])KCNTATCATQRLAEFLVHSS[Aib]NFGPILPPTNVGSNTY-NH2; disulfide 3-8; N-terminus assumed), the “Cummulative food intake (% vehicle treated intake) At 12 h” value with lean rats was found to be 6.9 % vehicle treated intake. In addition, the “Cummulative food intake (% vehicle treated intake) At 24 h” value with lean rats (at 24 h) is reported as 5.5 % vehicle treated intake.
For the compound `CC[C@H](C)[C@H](NC(=O)[C@@H]1CCCN1C(=O)CNC(=O)[C@H](Cc1ccccc1)NC(=O)[C@H](CC(N)=O)NC(=O)C(C)(C)NC(=O)[C@H](CO)NC(=O)[C@H](CO)NC(=O)[C@H](Cc1c[nH]cn1)NC(=O)[C@@H](NC(=O)[C@H](CC(C)C)NC(=O)[C@H](Cc1ccccc1)NC(=O)[C@H](CC(N)=O)NC(=O)[C@H](C)NC(=O)[C@H](CC(C)C)NC(=O)[C@H](CCCNC(=N)N)NC(=O)[C@H](CCC(N)=O)NC(=O)[C@@H](NC(=O)[C@H](C)NC(=O)[C@@H]1CSSC[C@H](NC(=O)[C@H](CCCCN)NC(=O)[C@@H](N)CCCCNC(=O)CC[C@H](NC(=O)CC[C@H](NC(=O)CCCCCCCCCCCCCCCCC(=O)O)C(=O)O)C(=O)O)C(=O)N[C@@H](CC(N)=O)C(=O)N[C@@H]([C@@H](C)O)C(=O)N[C@@H](C)C(=O)N[C@@H]([C@@H](C)O)C(=O)N1)[C@@H](C)O)C(C)C)C(=O)N[C@@H](CC(C)C)C(=O)N1CCC[C@H]1C(=O)N1CCC[C@H]1C(=O)N[C@H](C(=O)N[C@@H](CCCNC(=N)N)C(=O)N[C@H](C(=O)NCC(=O)N[C@@H](CO)C(=O)N[C@@H](CC(N)=O)C(=O)N[C@H](C(=O)N[C@@H](Cc1ccc(O)cc1)C(N)=O)[C@@H](C)O)C(C)C)[C@@H](C)O` [Peptide 70, K(γE-γE-C18diacid)K[CNTATC]ATQRLANFLVHSS(Aib)NFGPILPPTRVGSNTY-amide] (H-K([γGlu-γGlu-C18 diacid])KCNTATCATQRLANFLVHSS[Aib]NFGPILPPTRVGSNTY-NH2; disulfide 3-8; N-terminus assumed), the “Time taken to detect increase in fluorescence intensity” value (“Time taken to detect increase” below) in series [1] is >144 h.
Still for that read-out and setting: under `CC[C@H](C)[C@H](NC(=O)[C@@H]1CCCN1C(=O)CNC(=O)[C@](C)(Cc1ccccc1)NC(=O)[C@H](CC(N)=O)NC(=O)[C@H](CC(N)=O)NC(=O)[C@H](CO)NC(=O)[C@H](CO)NC(=O)[C@H](Cc1c[nH]cn1)NC(=O)[C@@H](NC(=O)[C@H](CC(C)C)NC(=O)[C@H](Cc1ccccc1)NC(=O)[C@H](CC(N)=O)NC(=O)[C@H](C)NC(=O)[C@H](CC(C)C)NC(=O)[C@H](CCCNC(=N)N)NC(=O)[C@H](CCC(N)=O)NC(=O)[C@@H](NC(=O)[C@H](C)NC(=O)[C@@H]1CSSC[C@H](NC(=O)[C@@H](N)CCCCNC(=O)CC[C@H](NC(=O)CC[C@H](NC(=O)CCCCCCCCCCCCCCCCC(=O)O)C(=O)O)C(=O)O)C(=O)N[C@@H](CC(N)=O)C(=O)N[C@@H]([C@@H](C)O)C(=O)N[C@@H](C)C(=O)N[C@@H]([C@@H](C)O)C(=O)N1)[C@@H](C)O)C(C)C)C(=O)N[C@@H](CC(C)C)C(=O)N1CCC[C@H]1C(=O)N1CCC[C@H]1C(=O)N[C@H](C(=O)N[C@@H](CCCNC(=N)N)C(=O)N[C@H](C(=O)NCC(=O)N[C@@H](CO)C(=O)N[C@@H](CC(N)=O)C(=O)N[C@H](C(=O)N[C@@H](Cc1ccc(O)cc1)C(N)=O)[C@@H](C)O)C(C)C)[C@@H](C)O` [Peptide 24, K(γE-γE-C18diacid)[CNTATC]ATQRLANFLVHSSNN(αMePhe)GPILPPTRVGSNTY-amide] (H-K([γGlu-γGlu-C18 diacid])CNTATCATQRLANFLVHSSNN[αMeF]GPILPPTRVGSNTY-NH2; disulfide 2-7; N-terminus assumed) stands >144 h.
Take `CC[C@H](C)[C@H](NC(=O)[C@@H]1CCCN1C(=O)CNC(=O)[C@H](Cc1ccccc1)NC(=O)[C@H](CC(N)=O)NC(=O)[C@H](CC(N)=O)NC(=O)[C@H](CO)NC(=O)[C@H](CO)NC(=O)[C@H](Cc1c[nH]cn1)NC(=O)[C@@H](NC(=O)[C@H](CC(C)C)NC(=O)[C@H](Cc1ccccc1)NC(=O)[C@H](CC(N)=O)NC(=O)[C@H](C)NC(=O)[C@H](CC(C)C)NC(=O)[C@H](CCCNC(=N)N)NC(=O)[C@H](CCC(N)=O)NC(=O)[C@@H](NC(=O)[C@H](C)NC(=O)[C@@H]1CSSC[C@H](NC(=O)[C@@H](N)CCCCNC(=O)CC[C@H](NC(=O)CC[C@H](NC(=O)CCCCCCCCCCCCCCCCC(=O)O)C(=O)O)C(=O)O)C(=O)N[C@@H](CC(N)=O)C(=O)N[C@@H]([C@@H](C)O)C(=O)N[C@@H](C)C(=O)N[C@@H]([C@@H](C)O)C(=O)N1)[C@@H](C)O)C(C)C)C(=O)N[C@@H](CC(C)C)C(=O)N1CCC[C@H]1C(=O)N1CCC[C@H]1C(=O)N[C@H](C(=O)N[C@@H](CC(N)=O)C(=O)N[C@H](C(=O)NCC(=O)N[C@@H](CO)C(=O)N[C@@H](CC(N)=O)C(=O)N[C@H](C(=O)N[C@@H](Cc1ccc(O)cc1)C(N)=O)[C@@H](C)O)C(C)C)[C@@H](C)O` [Peptide 5] (H-K([γGlu-γGlu-C18 diacid])CNTATCATQRLANFLVHSSNNFGPILPPTNVGSNTY-NH2; disulfide 2-7; N-terminus assumed): the “Time taken to detect increase” value in series [1] amounted to 7 h. Besides, the “fibril-forming tendency on conjugating pramlintide to a lipid” value in series [1] (as seen in Table 7) is “increases the fibril-forming tendency”.
Consider `CC[C@H](C)[C@H](NC(=O)[C@@H]1CCCN1C(=O)CNC(=O)[C@H](Cc1ccccc1)NC(=O)[C@H](CC(N)=O)NC(=O)[C@H](CCN)NC(=O)[C@H](CO)NC(=O)[C@H](CO)NC(=O)[C@H](Cc1c[nH]cn1)NC(=O)[C@@H](NC(=O)[C@H](CC(C)C)NC(=O)[C@H](Cc1ccccc1)NC(=O)[C@H](CC(N)=O)NC(=O)[C@H](C)NC(=O)[C@H](CC(C)C)NC(=O)[C@H](CCCNC(=N)N)NC(=O)[C@H](CCC(N)=O)NC(=O)[C@@H](NC(=O)[C@H](C)NC(=O)[C@@H]1CSSC[C@H](NC(=O)[C@H](CCCCN)NC(=O)[C@@H](N)CCCCNC(=O)CC[C@H](NC(=O)CCCCCCCCCCCCCCCCC(=O)O)C(=O)O)C(=O)N[C@@H](CC(N)=O)C(=O)N[C@@H]([C@@H](C)O)C(=O)N[C@@H](C)C(=O)N[C@@H]([C@@H](C)O)C(=O)N1)[C@@H](C)O)C(C)C)C(=O)N[C@@H](CC(C)C)C(=O)N1CCC[C@H]1C(=O)N1CCC[C@H]1C(=O)N[C@H](C(=O)N[C@@H](CCC(=O)O)C(=O)N[C@H](C(=O)NCC(=O)N[C@@H](CO)C(=O)N[C@@H](CC(N)=O)C(=O)N[C@H](C(=O)N[C@@H](Cc1ccc(O)cc1)C(N)=O)[C@@H](C)O)C(C)C)[C@@H](C)O` [Peptide 28, K(γE-C18diacid)K[CNTATC]ATQRLANFLVHSS(Dab)NFGPILPPTEVGSNTY-amide] (H-K([γGlu-C18 diacid])KCNTATCATQRLANFLVHSS[Dab]NFGPILPPTEVGSNTY-NH2; disulfide 3-8; N-terminus assumed), for which, in series [1], the “Time taken to detect increase” value is on record as 45 h.
